Measurements taken from patent US20130267500A1, “5-HT2C RECEPTOR AGONISTS IN THE TREATMENT OF DISORDERS AMELIORATED BY REDUCTION OF NORE[…]” (Arena Pharmaceuticals, Inc., priority 2010, published 2013).

Key:
[1] = 56-day placebo-controlled study of lorcaserin hydrochloride: body weight; type: in vivo, human; details: for Bodyweight, Mean: lorcaserin hydrochloride 10 mg BID oral
Protocol: (§1) A fifty-six-day, double-blind, randomized, placebo-controlled, parallel-group study was conducted to assess the effects of lorcaserin hydrochloride administration to overweight and obese male and female patients. The study was completed according to the guidelines of Good Clinical Practice and was conducted in full compliance with the World Medical Association Declaration of Helsinki and its most recent amendments.
(§2) Fifty-seven overweight or obese adult male and female subjects aged 18 to 65 years inclusive were randomized to one of two treatment groups: placebo or lorcaserin hydrochloride (10 mg) twice-a-day (BID) for 56 days. The majority of subjects were female (68.4%) and Caucasian (63.2%). […] Patients were required to participate in the Arena Healthy Lifestyle Program®, designed specifically for this study, which included a 600 kcal deficit diet and 30 minutes of moderate exercise per day.
(§3) Each subject underwent screening procedures within 28 days or sooner, prior to dosing on Day 1, over 3 screening visits (Days −28, −14, and −7). This was followed by an initial inpatient period of 4 days, a 3-day outpatient period, a second 4-day inpatient period, a second outpatient period over 45 days which included 7 visits, and a final 3-day inpatient period. Fifty-three subjects completed the study.
(§4) Lorcaserin formulation is composed of white tablets containing lorcaserin (active) and excipients (silicified microcrystalline cellulose NF, hydroxypropyl cellulose NF, croscarmellose sodium NF, magnesium stearate NF and Opadry® II white). The placebo is composed of white tablets containing excipients.
(§5) All enrolled patients received two oral doses per day (one dose in the morning prior to breakfast and one dose in the evening prior to dinner) of study medication (lorcaserin or placebo) for 56 days. Dosing was performed in a double-blind manner so that neither the patient nor the Investigator knew which treatment had been assigned. Patients were told to take the study medication each morning and evening approximately 60 minutes before breakfast and dinner and were encouraged to take the study medication with an adequate amount of water (8 oz or 240 mL). Patients were asked not to crush, break, chew, or dissolve the tablets.
Patients were required to fast for 10 hours prior to each study visit that requires a blood sample for clinical laboratory tests. Participants were weighed (in duplicate) at each study visit wearing a hospital gown. Efforts were made to schedule study visits prior to 10:00 a.m. to capture the fasted body weight and to reduce the variability in body weight normally observed throughout the day. Weights were measured in kilograms (kg).
The analyses of all efficacy variables used the Modified Intent-to-Treat Population (MITT) population. Patient data were analyzed according to the treatment assigned at randomization, regardless of the treatment received during the course of the trial. Inclusion was dependent on the presence of a baseline measurement, consumption of at least one study dose, and a post-randomization measurement. Patients were instructed to bring their unused study drug with them to each study visit. Compliance was assessed by the number of remaining tablets. Change from baseline or percent change from baseline is defined as the change from Day 1 (randomization) measurement. If the Day 1 measurement was not available, the last non-missing pre-randomization measurement was used as the baseline value, otherwise baseline was considered missing. […]

[2] = tested on: norepinephrine; assay: 56-day placebo-controlled study: 24 h urine norepinephrine; type: in vivo, human; details: 10 mg BID
Protocol: as §1
(§6) Fifty-seven overweight or obese adult male and female subjects aged 18 to 65 years inclusive were randomized to one of two treatment groups: placebo or lorcaserin hydrochloride (10 mg) twice-a-day (BID) for 56 days. The majority of subjects were female (68.4%) and Caucasian (63.2%). […]
(§7) The analyses of all efficacy variables used the Modified Intent-to-Treat Population (MITT) population. Patient data were analyzed according to the treatment assigned at randomization, regardless of the treatment received during the course of the trial. […] Compliance was assessed by the number of remaining tablets. […]
(§8) Mean concentrations and mean change from baseline in 24 h urine epinephrine and norepinephrine at Day 7 and Day 56 were assessed. […] Epinephrine was below the limit of quantitation in 44 of 55 available patient samples at Day 7 and 33 of 52 available samples at Day 56. […]

[3] = tested on: epinephrine; assay: 56-day placebo-controlled study: 24 h urine epinephrine; type: in vivo, human; details: after 7 or 56 days of treatment; small number of evaluable samples
Protocol: as §1, §6, §7, §8

[4] = 56-day placebo-controlled study: safety (adverse events, ECG, BDI-II); type: in vivo, human
Protocol: as §1, §2, §3, §4, §5
A 12-lead ECG was performed at screening (baseline), and during the exit visit (Day 57). […] Individual subjects experienced abnormalities at all time points including baseline. […] None of the abnormalities were clinically significant.
Serial assessments of depression were performed during the study at Days −2, +6 and +55 (Beck Depression Inventory-II (BDI-II)).

[5] = cited from earlier work
[6] = target: T1, human 5-HT2C receptors (Homo sapiens, UniProt P28335); details: cited from earlier work
T1 sequence (P28335 33-458): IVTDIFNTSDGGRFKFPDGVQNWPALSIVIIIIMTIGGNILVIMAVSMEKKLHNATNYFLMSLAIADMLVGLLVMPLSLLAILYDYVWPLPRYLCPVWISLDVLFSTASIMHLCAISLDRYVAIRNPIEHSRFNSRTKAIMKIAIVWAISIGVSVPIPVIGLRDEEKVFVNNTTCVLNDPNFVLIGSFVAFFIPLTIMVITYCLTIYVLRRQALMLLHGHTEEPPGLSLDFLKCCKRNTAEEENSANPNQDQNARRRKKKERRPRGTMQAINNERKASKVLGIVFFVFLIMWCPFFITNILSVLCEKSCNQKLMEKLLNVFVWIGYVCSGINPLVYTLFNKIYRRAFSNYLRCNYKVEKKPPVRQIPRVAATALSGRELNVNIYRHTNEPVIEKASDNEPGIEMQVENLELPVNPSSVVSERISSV

[7] = target: 5-HT2A receptors (Homo sapiens, UniProt P28223); details: cited from earlier work
Sequence of 5-HT2A receptors (P28223 whole entry): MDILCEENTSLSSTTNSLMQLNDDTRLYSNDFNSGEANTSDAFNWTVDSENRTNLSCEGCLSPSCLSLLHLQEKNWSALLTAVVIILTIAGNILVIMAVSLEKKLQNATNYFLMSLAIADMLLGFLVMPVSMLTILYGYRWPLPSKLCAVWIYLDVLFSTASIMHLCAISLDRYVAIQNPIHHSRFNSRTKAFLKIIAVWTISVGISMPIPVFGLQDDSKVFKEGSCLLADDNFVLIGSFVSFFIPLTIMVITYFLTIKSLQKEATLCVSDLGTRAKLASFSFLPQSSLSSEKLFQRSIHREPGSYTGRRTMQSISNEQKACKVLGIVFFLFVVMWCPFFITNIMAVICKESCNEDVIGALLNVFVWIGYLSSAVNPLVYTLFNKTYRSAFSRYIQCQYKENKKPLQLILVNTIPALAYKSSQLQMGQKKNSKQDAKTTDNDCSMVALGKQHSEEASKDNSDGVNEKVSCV

[8] = target: 5-HT2B receptors (Homo sapiens, UniProt P41595); details: cited from earlier work
Sequence of 5-HT2B receptors (P41595 whole entry): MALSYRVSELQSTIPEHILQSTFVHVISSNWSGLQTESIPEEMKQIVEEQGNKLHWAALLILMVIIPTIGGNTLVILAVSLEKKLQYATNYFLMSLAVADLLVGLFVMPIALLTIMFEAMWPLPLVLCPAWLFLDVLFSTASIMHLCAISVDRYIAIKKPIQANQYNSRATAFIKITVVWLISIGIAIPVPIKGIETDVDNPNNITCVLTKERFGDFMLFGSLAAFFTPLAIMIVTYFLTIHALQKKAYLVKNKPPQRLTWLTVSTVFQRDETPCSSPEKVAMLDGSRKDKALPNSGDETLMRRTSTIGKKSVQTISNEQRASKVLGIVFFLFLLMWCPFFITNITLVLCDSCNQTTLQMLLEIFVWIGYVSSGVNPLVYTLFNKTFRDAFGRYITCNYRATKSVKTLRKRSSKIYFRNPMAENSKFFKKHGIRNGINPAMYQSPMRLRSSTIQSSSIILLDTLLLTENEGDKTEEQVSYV

[9] = lorcaserin group, 10 mg BID, 56 days
[10] = phase 3 program, up to two years

## C[C@H]1CNCCc2ccc(Cl)cc21 [Lorcaserin, (R)-8-Chloro-1-methyl-2,3,4,5-tetrahydro-1H-3-benzazepine]
[1]; Day 1 (baseline), overweight/obese patients
  Bodyweight, Mean: 96.59 kg
[1]; Day 6
  Bodyweight, Mean: 96.67 kg
[1]; Day 55
  Bodyweight, Mean: 93.84 kg
[1]; at 6 days, 10 mg BID
  weight loss: No significant weight loss
[1]; at 55 days, 10 mg BID
  weight loss as compared to placebo: Significantly greater weight loss
[2]; after 7 days (p<0.0001)
  24 h norepinephrine excretion in urine: significant decrease
[2]; after 56 days (p<0.001)
  24 h norepinephrine excretion in urine: significant decrease
[3]
  24 h epinephrine excretion: no change
[4]; 10 mg BID, 56 days
  deaths or serious adverse events: No deaths or serious adverse events occurred
  early terminations due to AEs: no early terminations due to AEs
  incidence of depression related adverse events: did not increase
  tolerability: generally well tolerated
[4]; Days -2, +6 and +55
  Beck Depression Inventory-II (BDI-II), difference between lorcaserin and placebo groups: No meaningful differences
[4]; lorcaserin group (29 randomized), 10 mg BID, 56 days
  Headache, subjects with at least 1 event: 11 subjects
[4]; [9]
  Dizziness, subjects reporting: 3 subjects
  Headache, rate of subjects with at least 1 event: 37.9%
[4]; screening vs exit visit (Day 57)
  12-lead ECG effects: no apparent treatment-related effects on ECG
[5]; first phase 3 trial
  excess body weight lost (normal BMI of 25): about one-third
[5]; [10]
  patients achieving at least 5% weight loss: About two-thirds
  patients achieving at least 10% weight loss: over one-third
[5]; phase 3 program
  average weight lost, of their weight: about 8%
  depression or suicidal ideation: no signal
  heart rate and blood pressure: went down
  risk of cardiac valvulopathy: did not increase the risk
[5]; second phase 3 trial
  average weight loss, top quartile of patients: 35 pounds
  average weight loss, top quartile of patients, of body weight: 16%

## CN(C)[C@@H]1Cc2ccccc2[C@@H](c2ccccc2)C1 [(1R,3S)-(−)-trans-1-phenyl-3-dimethylamino-1,2,3,4-tetrahydronaphthalene]
[6]
  activity at human 5-HT2C receptors: agonist
[7]
  activity at 5-HT2A receptors: antagonist
[8]
  activity at 5-HT2B receptors: antagonist
